From ChEMBL document CHEMBL5634182, “Antifungal Pseuboyenes A-J, Bergamotene-Derived Sesquiterpenoids from a Cold-Seep-Derived Pseudallescheria boydii” (J Nat Prod, 2024)

Experiments:
Alternaria brassicae = assay: Antifungal activity against Alternaria brassicae QDAU-16 assessed as reduction in microbial growth by broth microdilution method; type: functional
[1] = test system: Ceratobasidium cornigerum; assay: Antifungal activity against Ceratobasidium cornigerum QDAU-6 assessed as reduction in microbial growth by broth microdilution method; type: functional
Coniella diplodiella = assay: Antifungal activity against Coniothyrium diplodiella QDAU-7 assessed as reduction in microbial growth by broth microdilution method; type: functional
[2] = test system: Colletotrichum gloeosporioides; assay: Antifungal activity against Colletotrichum gloeosporioides QDAU-2 assessed as reduction in microbial growth by broth microdilution method; type: functional
[3] = test system: Colletotrichum gloeosporioides; assay: Antifungal activity against Colletotrichum gloeosporioides QDAU-17 assessed as reduction in microbial growth by broth microdilution method; type: functional
Curvularia spicifera = assay: Antifungal activity against Curvularia spicifera QDAU-18 assessed as reduction in microbial growth by broth microdilution method; type: functional
Fusarium graminearum = assay: Antifungal activity against Fusarium graminearum QDAU-4 assessed as reduction in microbial growth by broth microdilution method; type: functional
Fusarium oxysporum = assay: Antifungal activity against Fusarium oxysporum QDAU-8 assessed as reduction in microbial growth by broth microdilution method; type: functional
Fusarium proliferatum [4] = assay: Antifungal activity against Fusarium proliferatum QDAU-19 assessed as reduction in microbial growth by broth microdilution method; type: functional
Penicillium digitatum = assay: Antifungal activity against Penicillium digitatum QDAU-14 assessed as reduction in microbial growth by broth microdilution method; type: functional
[5] = test system: Botryosphaeria berengeriana; assay: Antifungal activity against Physalospora piricola QDAU-15 assessed as reduction in microbial growth by broth microdilution method; type: functional
Escherichia coli = assay: Antibacterial activity against Escherichia coli EMBLC-1 assessed as reduction in microbial growth by broth microdilution method; type: functional
Edwardsiella tarda = assay: Antibacterial activity against Edwardsiella tarda QDIO-2 assessed as reduction in microbial growth by broth microdilution method; type: functional
Micrococcus luteus = assay: Antibacterial activity against Micrococcus luteus QDIO-3 assessed as reduction in microbial growth by broth microdilution method; type: functional
Pseudomonas aeruginosa = assay: Antibacterial activity against Pseudomonas aeruginosa QDIO-4 assessed as reduction in microbial growth by broth microdilution method; type: functional
Vibrio anguillarum = assay: Antibacterial activity against Vibrio anguillarum QDIO-6 assessed as reduction in microbial growth by broth microdilution method; type: functional
Vibrio harveyi = assay: Antibacterial activity against Vibrio harveyi QDIO-7 assessed as reduction in microbial growth by broth microdilution method; type: functional
Vibrio vulnificus = assay: Antibacterial activity against Vibrio vulnificus QDIO-10 assessed as reduction in microbial growth by broth microdilution method; type: functional
Fusarium proliferatum [6] = assay: Antifungal activity against Fusarium proliferatum assessed as reduction in microbial growth measured after 72 hrs; type: functional, organism-based
MKN-45 = assay: Cytotoxicity against human MKN-45 cells assessed as reduction in cell viability at 20 uM; type: functional, cell-based
A549 = assay: Cytotoxicity against human A549 cells assessed as reduction in cell viability at 20 uM; type: functional, cell-based
HCT-116 = assay: Cytotoxicity against human HCT-116 cells assessed as reduction in cell viability at 20 uM; type: functional, cell-based
HeLa = assay: Cytotoxicity against human HeLa cells assessed as reduction in cell viability at 20 uM; type: functional, cell-based
K562 = assay: Cytotoxicity against human K562 cells assessed as reduction in cell viability at 20 uM; type: functional, cell-based
786-0 = assay: Cytotoxicity against human 786-0 cells assessed as reduction in cell viability at 20 uM; type: functional, cell-based
TE-1 = assay: Cytotoxicity against human TE-1 cells assessed as reduction in cell viability at 20 uM; type: functional, cell-based
5637 = assay: Cytotoxicity against human 5637 cells assessed as reduction in cell viability at 20 uM; type: functional, cell-based
GBC-SD = assay: Cytotoxicity against human GBC-SD cells assessed as reduction in cell viability at 20 uM; type: functional, cell-based
L02 = assay: Cytotoxicity against human L02 cells assessed as reduction in cell viability at 20 uM; type: functional, cell-based
MCF7 = assay: Cytotoxicity against human MCF7 cells assessed as reduction in cell viability at 20 uM; type: functional, cell-based
HepG2 = assay: Cytotoxicity against human HepG2 cells assessed as reduction in cell viability at 20 uM; type: functional, cell-based
SF-126 = assay: Cytotoxicity against human SF-126 cells assessed as reduction in cell viability at 20 uM; type: functional, cell-based
DU-145 = assay: Cytotoxicity against human DU-145 cells assessed as reduction in cell viability at 20 uM; type: functional, cell-based
CAL-62 = assay: Cytotoxicity against human CAL-62 cells assessed as reduction in cell viability at 20 uM; type: functional, cell-based
PaTu 8988t = assay: Cytotoxicity against human PaTu 8988t cells assessed as reduction in cell viability at 20 uM; type: functional, cell-based
HOS = assay: Cytotoxicity against human HOS cells assessed as reduction in cell viability at 20 uM; type: functional, cell-based
A-375 = assay: Cytotoxicity against human A-375 cells assessed as reduction in cell viability at 20 uM; type: functional, cell-based
A673 = assay: Cytotoxicity against human A673 cells assessed as reduction in cell viability at 20 uM; type: functional, cell-based
HEK-293T = assay: Cytotoxicity against human HEK293T cells assessed as reduction in cell viability at 20 uM; type: toxicity, cell-based

## C=C1CC[C@@]2(C[C@@H](O)C(=O)OC)C[C@@H]1[C@](C)([C@H](O)CC=C(C)C)O2
Alternaria brassicae
  MIC: 8 µg/mL
[1]
  MIC: 64 µg/mL
Coniella diplodiella
  MIC: 4 µg/mL
[2]
  MIC: 4 µg/mL
[3]
  MIC: 64 µg/mL
Curvularia spicifera
  MIC: 4 µg/mL
Fusarium graminearum
  MIC: 4 µg/mL
Fusarium oxysporum
  MIC: 16 µg/mL
Fusarium proliferatum [4]
  MIC: 4 µg/mL
Penicillium digitatum
  MIC: 8 µg/mL
[5]
  MIC: 64 µg/mL
Escherichia coli
  MIC: > 64 µg/mL
Edwardsiella tarda
  MIC: > 64 µg/mL
Micrococcus luteus
  MIC: > 64 µg/mL
Pseudomonas aeruginosa
  MIC: > 64 µg/mL
Vibrio anguillarum
  MIC: 16 µg/mL
Vibrio harveyi
  MIC: > 64 µg/mL
Vibrio vulnificus
  MIC: 64 µg/mL

## C[C@@H]1[C@H](O)[C@@H](C)/C=C/C=C/C=C/C=C/C=C/C=C/C=C/[C@H](O[C@@H]2O[C@H](C)[C@@H](O)[C@H](N)[C@@H]2O)C[C@@H]2O[C@](O)(C[C@@H](O)C[C@@H](O)[C@H](O)CC[C@@H](O)C[C@@H](O)CC(=O)O[C@H]1C)C[C@H](O)[C@H]2C(=O)O [AMPHOTERICIN B]
Alternaria brassicae
  MIC: 0.5 µg/mL
[1]
  MIC: 8 µg/mL
Coniella diplodiella
  MIC: 0.5 µg/mL
[2]
  MIC: 2 µg/mL
[3]
  MIC: 8 µg/mL
Curvularia spicifera
  MIC: 0.5 µg/mL
Fusarium graminearum
  MIC: 2 µg/mL
Fusarium oxysporum
  MIC: 4 µg/mL
Fusarium proliferatum [4]
  MIC: 1 µg/mL
Penicillium digitatum
  MIC: 4 µg/mL
[5]
  MIC: 8 µg/mL

## C=C1CC[C@H](O)C[C@@H]1[C@H](C)[C@H](O)C(=O)C=C(C)C
Escherichia coli
  MIC: > 64 µg/mL
Edwardsiella tarda
  MIC: > 64 µg/mL
Micrococcus luteus
  MIC: > 64 µg/mL
Pseudomonas aeruginosa
  MIC: > 64 µg/mL
Vibrio anguillarum
  MIC: 64 µg/mL
Vibrio harveyi
  MIC: > 64 µg/mL
Vibrio vulnificus
  MIC: 2 µg/mL

## C=C1CC[C@@]2(O)C[C@@H]1[C@]2(C)[C@@H](CC=C(C)C)OC(C)=O
Alternaria brassicae
  MIC: 8 µg/mL
[1]
  MIC: 4 µg/mL
Coniella diplodiella
  MIC: 4 µg/mL
[2]
  MIC: 4 µg/mL
[3]
  MIC: 16 µg/mL
Curvularia spicifera
  MIC: 1 µg/mL
Fusarium graminearum
  MIC: 2 µg/mL
Fusarium oxysporum
  MIC: 16 µg/mL
Fusarium proliferatum [4]
  MIC: 2 µg/mL
Penicillium digitatum
  MIC: 8 µg/mL
[5]
  MIC: 32 µg/mL
Escherichia coli
  MIC: 8 µg/mL
Edwardsiella tarda
  MIC: 4 µg/mL
Micrococcus luteus
  MIC: > 64 µg/mL
Pseudomonas aeruginosa
  MIC: > 64 µg/mL
Vibrio anguillarum
  MIC: > 64 µg/mL
Vibrio harveyi
  MIC: 16 µg/mL
Vibrio vulnificus
  MIC: > 64 µg/mL

## C=C1C(=O)C[C@@]2(C)C[C@@H]1[C@](C)([C@H](O)CC=C(C)C)O2
Alternaria brassicae
  MIC: 4 µg/mL
[1]
  MIC: 8 µg/mL
Coniella diplodiella
  MIC: 4 µg/mL
[2]
  MIC: 4 µg/mL
[3]
  MIC: 8 µg/mL
Curvularia spicifera
  MIC: 8 µg/mL
Fusarium graminearum
  MIC: 1 µg/mL
Fusarium oxysporum
  MIC: 4 µg/mL
Fusarium proliferatum [4]
  MIC: 16 µg/mL
Penicillium digitatum
  MIC: 4 µg/mL
[5]
  MIC: 4 µg/mL

## C=C1CC[C@@]2(O)C[C@@H]1[C@]2(C)[C@@H](/C=C/C(C)(C)O)OC(C)=O
Alternaria brassicae
  MIC: 0.5 µg/mL
[1]
  MIC: 4 µg/mL
Coniella diplodiella
  MIC: 0.5 µg/mL
[2]
  MIC: 4 µg/mL
[3]
  MIC: 8 µg/mL
Curvularia spicifera
  MIC: 2 µg/mL
Fusarium graminearum
  MIC: 4 µg/mL
Fusarium oxysporum
  MIC: 2 µg/mL
Fusarium proliferatum [4]
  MIC: 0.5 µg/mL
Penicillium digitatum
  MIC: 4 µg/mL
[5]
  MIC: 8 µg/mL
Fusarium proliferatum [6]
  EC50: 1 µg/mL
Fusarium proliferatum [6]; dose <= 100.0 µg/ml
  Activity: Dose-Dependent Effect
MKN-45
  Activity: Not toxic
A549
  Activity: Not toxic
HCT-116
  Activity: Not toxic
HeLa
  Activity: Not toxic
K562
  Activity: Not toxic
786-0
  Activity: Not toxic
TE-1
  Activity: Not toxic
5637
  Activity: Not toxic
GBC-SD
  Activity: Not toxic
L02
  Activity: Not toxic
MCF7
  Activity: Not toxic
HepG2
  Activity: Not toxic
SF-126
  Activity: Not toxic
DU-145
  Activity: Not toxic
CAL-62
  Activity: Not toxic
PaTu 8988t
  Activity: Not toxic
HOS
  Activity: Not toxic
A-375
  Activity: Not toxic
A673
  Activity: Not toxic
HEK-293T
  Activity: Non-Toxic
